Laboratory results: patent US20200289514A1, “Novel Pyrazolo Pyrimidine Derivatives” (Novartis AG, priority 2015, published 2020)
pIC50: −log10 of the molar value. Values after ≈ are worked out from the molar mass of the structure shown. Where two headings read alike, the source gives them in different places.

Tests used:
[1] = system: Human IL2 promoter; test: Human IL2 promoter reporter gene assay (RGA) in Jurkat cells; format: cell-based; details: Jurkat clone K22 290_H23, anti-CD28 mAb + PMA, 5.5 h
Method: Human IL2 Promoter Reporter Gene Assay (RGA) in Jurkat Cells
The transfected Jurkat clone K22 290_H23 was propagated in RPMI 1640 supplemented with 10% heat inactivated fetal calf serum, 50 μM 2-mercaptoethanol and 1 mg/ml Geneticin. The cell concentration should not exceed 1×10e6/ml during culturing. The cells should not exceed passage 30. Prior to the assay the cells were washed and prepared to the concentration of 2×10e6 cells/ml.
Compound dilutions were made as 2×-concentrated solutions then diluted ½ by addition to cells. Two hundred and fifty μl of compound dilution and 250 μl of cells were mixed together in wells of a 96-deep well plate. Cells/compounds premix were incubated 30 min at 37° C. and 5% CO2 directly in the deep well plate.
After pre-incubation of cells with compounds, cells were stimulated with anti-CD28 mAb (clone 15E8) at 3 μg/ml+PMA at 1 μg/ml. Both co-stimulants were diluted in culture medium at a 10×-concentrated solution. 10 μl of co-stimulants were pipetted into the white 96-well plates and 100 μl of cell/compound mix was immediately added in duplicates. The cells were stimulated for 5.5 h at 37° C. and 5% CO2.
After cell stimulation, 50 μl of BriteLitePlus reagent (Perkin Elmer) was added to each well and the bioluminescence was measured with a Wallac EnVision reader (Perkin Elmer).

[2] = Solubility in aqueous and biorelevant media; format: physicochemical
[3] = biological target: T1, C-domain of MALT1 (amino acids 329-824) (Homo sapiens, UniProt Q9UDY8); test: MALT1 Biochemical Assay - Version 1 (fluorescence lifetime)
T1 sequence (Q9UDY8 329-824): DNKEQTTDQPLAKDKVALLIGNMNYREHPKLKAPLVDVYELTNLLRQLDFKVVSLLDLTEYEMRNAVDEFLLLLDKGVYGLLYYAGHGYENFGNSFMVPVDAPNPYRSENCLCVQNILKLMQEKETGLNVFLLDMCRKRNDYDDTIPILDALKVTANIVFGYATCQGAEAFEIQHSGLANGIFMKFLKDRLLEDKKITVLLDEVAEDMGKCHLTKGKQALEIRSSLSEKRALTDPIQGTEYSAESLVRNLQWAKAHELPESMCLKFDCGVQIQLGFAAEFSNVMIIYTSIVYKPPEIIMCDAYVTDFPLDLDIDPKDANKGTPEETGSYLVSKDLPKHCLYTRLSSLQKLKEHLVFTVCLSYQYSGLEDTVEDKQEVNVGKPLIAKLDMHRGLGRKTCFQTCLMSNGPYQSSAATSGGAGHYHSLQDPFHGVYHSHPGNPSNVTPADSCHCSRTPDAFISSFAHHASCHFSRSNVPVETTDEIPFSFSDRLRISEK
Method: The readout parameter is the increase of fluorescence lifetime over time, proportional to enzyme activity.
The assay employs a short peptide substrate labeled with the single fluorophore PT14 as a fluorescence lifetime probe sensitive to the cleavage state of the substrate (PT14: 6-(9-oxo-9H-acridin-10-yl)-hexanoate, AssayMetrics, UK). […] Test compounds were dissolved in 100% (v/v) DMSO or a mixture containing 90% (v/v) DMSO and 10% (v/v) H2O at a stock concentration of 100 mM. Serial dilutions of test compounds were prepared using either 100% (v/v) DMSO or a mixture containing 90% (v/v) DMSO and 10% (v/v) H2O.
where y is the %-inhibition at the inhibitor concentration, x. A1 is the lowest inhibition value, and A2 the maximum inhibition value. The exponent, p, is the Hill coefficient.

SMILES | pIC50 [1] | pIC50 [3] | other results
CO[C@@H](C)c1c(NC(=O)Nc2cnc(-n3nccn3)c(Cl)c2)cnc2cc(Cl)nn12 [Example 5, (S)-1-(5-chloro-6-(2H-1,2,3-triazol-2-yl)pyridin-3-yl)-3-(2-chloro-7-(1-methoxyethyl)pyrazolo[1,5-a]pyrimidin-6-yl)urea] | 7.72 | – | solubility ([2]; Fasted state simulated intestinal fluid (FaSSIF), [pH] 6.59, read-out: Solubility (mg/mL) [pH]): 0.0044 mg/mL (≈ 9.82 µM); solubility ([2]; Fed state intestinal fluid (FeSSIF), [pH] 6.87, read-out: Solubility (mg/mL) [pH]): 0.0082 mg/mL (≈ 18.3 µM); solubility ([2]; Simulated Gastric Fluid (SGF), [pH] 2.55, read-out: Solubility (mg/mL) [pH]): 0.0168 mg/mL (≈ 37.5 µM); solubility ([2]; Water, [pH] 7.39, read-out: Solubility (mg/mL) [pH]): 0.005 mg/mL (≈ 11.2 µM); solubility ([2]; medium of pH 1.2 (composition not named), simulated gastric fluid, pH 1.2, [pH] 1.17, read-out: Solubility (mg/mL) [pH]): 0.0038 mg/mL (≈ 8.48 µM); solubility ([2]; medium of pH 3.0 (composition not named), aqueous buffer, pH 3.0, [pH] 3.14, read-out: Solubility (mg/mL) [pH]): 0.0052 mg/mL (≈ 11.6 µM); solubility ([2]; medium of pH 4.7 (composition not named), aqueous buffer, pH 4.7, [pH] 4.71, read-out: Solubility (mg/mL) [pH]): 0.0048 mg/mL (≈ 10.7 µM); solubility ([2]; medium of pH 7.4 (composition not named), aqueous buffer, pH 7.4, [pH] 7.34, read-out: Solubility (mg/mL) [pH]): 0.004 mg/mL (≈ 8.92 µM); solubility ([2]; medium of pH 9.0 (composition not named), aqueous buffer, pH 9.0, [pH] 8.09, read-out: Solubility (mg/mL) [pH]): 0.0055 mg/mL (≈ 12.3 µM)
CO[C@@H](C)c1c(NC(=O)Nc2cncc(C(F)F)c2)cnc2cc(F)nn12 [Example 29, (S)-1-(5-(difluoro-methyl)pyridin-3-yl)-3-(2-fluoro-7-(1-methoxyethyl)-pyrazolo[1,5-a]pyrimidin-6-yl)urea] | 6.87 | 7.30 | –
CO[C@@H](C)c1c(NC(=O)Nc2cnc(C(=O)N(C)C)c(Cl)c2)cnc2cc(Cl)nn12 [Example 31, (S)-3-chloro-5-(3-(2-chloro-7-(1-methoxyethyl)pyrazolo [1,5-a]pyrimidin-6-yl)ureido)-N,N-dimethylpicolinamide] | 7.46 | 7.92 | –
CNC(=O)c1ncc(NC(=O)Nc2cnc3cc(Cl)nn3c2[C@H](C)OC)cc1Cl [Example 34, (S)-3-chloro-5-(3-(2-chloro-7-(1-methoxyethyl)pyrazolo [1,5-a]pyrimidin-6-yl)ureido)-N-methylpicolinamide] | 7.55 | 8.15 | –
CO[C@@H](C)c1c(NC(=O)Nc2cncc(Cl)c2)cnc2cc(Cl)nn12 [Example 35, (S)-1-(2-chloro-7-(1-methoxyethyl)pyrazolo [1,5-a]pyrimidin-6-yl)-3-(5-chloropyridin-3-yl)urea] | 7.77 | 8.00 | –
COc1ncc(NC(=O)Nc2cnc3cc(Cl)nn3c2[C@@H](OC)[C@H](C)OC)cc1C#N [Example 36, 1-(2-chloro-7-((1R, 2S)-1,2-dimethoxypropyl)pyrazolo[1,5-a]pyrimidin-6-yl)-3-(5-cyano-6-methoxypyridin-3-yl)urea] | 7.46 | 8.52 | –
C[C@H](N)c1c(NC(=O)Nc2cnc(-n3nccn3)c(Cl)c2)cnc2cc(Cl)nn12 [Example 38, (S)-1-(7-(1-aminoethyl)-2-chloropyrazolo[1,5-a]pyrimidin-6-yl)-3-(5-chloro-6-(2H-1,2,3-triazol-2-yl)pyridin-3-yl)urea] | 7.07 | 7.62 | –
Cc1cc2ncc(NC(=O)Nc3cncc(C#N)c3)c([C@H](C)O)n2n1 [Example 39, (S)-1-(5-cyanopyridin-3-yl)-3-(7-(1-hydroxyethyl)-2-methylpyrazolo [1,5-a]pyrimidin-6-yl)urea] | 6.22 | 7.14 | –
C[C@H](O)c1c(NC(=O)Nc2ccnc(C(F)F)c2)cnc2cc(F)nn12 [Example 40, (S)-1-(2-(difluoromethyl)pyridin-4-yl)-3-(2-fluoro-7-(1-hydroxyethyl)pvrazolo[1,5-a]pyrimidin-6-yl)urea] | 7.00 | 7.96 | –
CO[C@@H](C)c1c(NC(=O)Nc2cc(Cl)cnc2OC[C@H](C)N)cnc2cc(Cl)nn12 [Example 41, 1-(2-((S)-2-aminopropoxy)-5-chloropyridin-3-yl)-3-(2-chloro-7-((S)-1-methoxyethyl)pvrazolo[1,5-a]pyrimidin-6-yl)urea] | 7.30 | 7.68 | –
CO[C@@H](C)c1c(NC(=O)Nc2cc[n+]([O-])c(C(F)F)c2)cnc2cc(F)nn12 [Example 42, (S)-2-(difluoromethyl)-4-(3-(2-fluoro-7-(1-methoxyethyl)pyrazolo[1,5-a]pyrimidin-6-yl)ureido)pyridine 1-oxide] | 6.14 | 7.02 | –

More lines, in order of rising pIC50 [1], values ahead:

pIC50 [1] | pIC50 [3] | SMILES | other results
6.88 | 7.04 | CO[C@@H](C)c1c(NC(=O)Nc2cncc(C#N)c2)cnc2cc(C)nn12 [Example 1, (S)-1-(5-cyanopyridin-3-yl)-3-(7-(1-methoxyethyl)-2-methylpyrazolo [1,5-a]pyrimidin-6-yl)urea] | solubility ([2]; 19.12 mM Sodium Maleate Fasted state simulated intestinal fluid (FaSSIF) pH 6.5, [pH] 6.63, read-out: Solubility (mg/mL) [pH]): 0.018 mg/mL (≈ 51.2 µM); solubility ([2]; FaSSIF pH 6.5, [pH] 6.56, read-out: Solubility (mg/mL) [pH]): 0.022 mg/mL (≈ 62.6 µM); solubility ([2]; Fed state intestinal fluid FeSSIF pH 5.8, [pH] 5.85, read-out: Solubility (mg/mL) [pH]): 0.027 mg/mL (≈ 76.8 µM); solubility ([2]; Simulated Gastric Fluid (SGF) pH 2.0, [pH] 2.00, read-out: Solubility (mg/mL) [pH]): 0.024 mg/mL (≈ 68.3 µM); solubility ([2]; Water, [pH] 7.65, read-out: Solubility (mg/mL) [pH]): 0.019 mg/mL (≈ 54.1 µM); solubility ([2]; aqueous buffer, 100 mM Sodium Acetate pH 4.0, [pH] 4.04, read-out: Solubility (mg/mL) [pH]): 0.019 mg/mL (≈ 54.1 µM); solubility ([2]; simulated gastric fluid, HCl/KCl pH 1.0, [pH] 1.10, read-out: Solubility (mg/mL) [pH]): 0.049 mg/mL (≈ 139 µM)
7.24 | 7.60 | COCC1(c2c(NC(=O)Nc3ccnc(C#N)c3)cnc3cc(Cl)nn23)CC1 [Example 37, 1-(2-chloro-7-(1-(methoxymethyl)cyclopropyl)pyrazolo [1,5-a]pyrimidin-6-yl)-3-(2-cyanopyridin-4-yl)urea] | –
7.33 | 7.74 | CO[C@@H](C)c1c(NC(=O)Nc2ccnc(C(F)F)c2)cnc2cc(F)nn12 [Example 2, (S)-1-(2-(difluoromethyl)pyridin-4-yl)-3-(2-fluoro-7-(1-methoxyethyl)pyrazolo[1,5-a]pyrimidin-6-yl)urea] | solubility ([2]; Free form, Fasted state simulated intestinal fluid FaSSIF (V2) pH 6.5, [pH] 6.64, read-out: Solubility mg/mL [pH] Free form): 0.041 mg/mL (≈ 108 µM); solubility ([2]; Free form, Fed state intestinal fluid FeSSIF (V2) pH 5.8, [pH] 5.85, read-out: Solubility mg/mL [pH] Free form): 0.093 mg/mL (≈ 245 µM); solubility ([2]; Free form, Simulated Gastric Fluid (SGF) pH 2.0, [pH] 1.99, read-out: Solubility mg/mL [pH] Free form): 0.338 mg/mL (≈ 889 µM); solubility ([2]; Free form, Water, [pH] 7.76, read-out: Solubility mg/mL [pH] Free form): 0.029 mg/mL (≈ 76.2 µM); solubility ([2]; aqueous buffer, Free form, 19.12 mM Sodium Maleate (blank FaSSIF) pH 6.5, [pH] 6.61, read-out: Solubility mg/mL [pH] Free form): 0.026 mg/mL (≈ 68.4 µM); solubility ([2]; aqueous buffer, Free form, 100 mM Sodium Acetate pH 4.0, [pH] 3.99, read-out: Solubility mg/mL [pH] Free form): 0.032 mg/mL (≈ 84.1 µM); solubility ([2]; simulated gastric fluid, Free form, HCl/KCl pH 1.0, [pH] 1.12, read-out: Solubility mg/mL [pH] Free form): > 2 mg/mL
7.36 | 7.96 | CO[C@@H](C)c1c(NC(=O)Nc2cnc(C(=O)N3CCCC3)c(Cl)c2)cnc2cc(Cl)nn12 [Example 33, (S)-1-(5-chloro-6-(pyrrolidine-1-carbonyl)pyridin-3-yl)-3-(2-chloro-7-(1-methoxyethyl)pyrazolo [1,5-a]pyrimidin-6-yl)urea] | –
7.40 | 7.96 | CO[C@@H](C)c1c(NC(=O)Nc2cncc(Cl)c2)cnc2cc(F)nn12 [Example 32, (S)-1-(5-chloro-pyridin-3-yl)-3-(2-fluoro-7-(1-methoxyethyl)pyrazolo [1,5-a]pyrimidin-6-yl)urea] | –
7.70 | 8.15 | CO[C@@H](C)c1c(NC(=O)Nc2cncc(C(F)(F)F)c2)cnc2cc(F)nn12 [Example 30, (S)-1-(2-fluoro-7-(1-methoxyethyl)pyrazolo [1,5-a]pyrimidin-6-yl)-3-(5-(trifluoro-methyl)pyridin-3-yl)urea] | –
